The record followed here is paper PMC5515887, “Ruthenium-conjugated chrysin analogues modulate platelet activity, thrombus formation and haemostasis with enhanced efficacy” (Scientific Reports, 2017).

One assay has as its system human washed platelets. In words: CRP-XL-induced aggregation of human washed platelets (optical aggregometry). Type of assay: cell-based. To be noted: CRP-XL 0.5 μg/mL. Here is the method:
To determine the effects of chrysin and thio-chrysin and their Ru-complexes in the modulation of platelet activation, aggregation assays were performed using cross-linked collagen-related peptide (CRP-XL) as a platelet agonist, by optical aggregometry. Firstly, to determine the effects of chrysin and its derivatives on isolated platelets, aggregation assays were performed using human washed platelets (devoid of plasma proteins and other blood cells).
Figure 2 Effects of chrysin and its derivatives in washed platelet aggregation. […] The aggregation traces shown are representative of three separate experiments.
(§1) The preparation of human platelets and aggregation assays were performed using standard protocols as described by us previously, [16]. Briefly, human blood was collected in 3.2% citrate containing vacutainers via venepuncture from healthy, aspirin-free individuals with informed consent in accordance with the methods approved by the University of Reading Research Ethics Committee. All methods were performed in accordance with the relevant institutional and national guidelines and regulations. Blood samples were centrifuged at 102 g for 20 minutes at room temperature to separate the PRP, which was used in aggregation, flow cytometry, static platelet adhesion, calcium mobilisation and clot retraction assays. For the preparation of washed platelets, 50 mL of blood samples were mixed with 7.5 mL of ACD (acid citrate dextrose) (20 g/L glucose, 25 g/L sodium citrate and 15 g/L citric acid) and centrifuged at 102 g for 20 minutes at room temperature. The PRP was carefully aspirated from the other blood cells prior to mixing with 3 mL of ACD and centrifuging at 1413 g for 10 minutes at room temperature. The resulting platelet pellet was re-suspended in modified Tyrodes-HEPES buffer (2.9 mM KCl, 134 mM NaCl, 0.34 mM Na2HPO4.12H20, 1 mM MgCl2, 12 mM NaHCO3, 20 mM HEPES, pH 7.3) and washed by centrifuging again at 1413 g for 10 minutes. The resulting platelet pellet was suspended in modified Tyrodes-HEPES buffer at a density of 4 × 10^8 cells/mL for aggregation, dense granule secretion, cellular uptake studies and calcium mobilisation assays. Human platelet aggregation was performed using CRP-XL as an agonist in the presence and absence of various concentrations of chrysin and its synthetic derivatives by optical aggregometry. A vehicle control [DMSO at a concentration of less than 0.1% (v/v)] was included in all the experiments. Dense granule secretion in platelets was determined by measuring the ATP release using the luciferin-luciferase reagent by lumi-aggregometry (Chrono-Log, USA). SDS-PAGE and immunoblotting analysis were performed using standard protocols. The rabbit anti-phospho-specific antibodies for human AKT pS473, FAK pY397 and Src pY527 were obtained from Abcam, UK and rabbit anti-human 14-3-3ζ (Santa Cruz Biotechnology, USA) was used to detect protein 14-3-3ζ as a loading control in immunoblot assays. The Cy5-conjugated goat anti-rabbit IgG (Life technologies, UK) was used as the secondary antibody.

Assay [1] has as its system human platelet-rich plasma (PRP). In words: CRP-XL-induced platelet aggregation in human platelet-rich plasma (optical aggregometry). It counts as cell-based. Here is the method: Therefore, to determine the effects of various concentrations of chrysin and its derivatives in the presence of plasma proteins, aggregation assays were performed using human platelet-rich plasma (PRP) and 0.5 μg/mL CRP-XL.
Figure 3 Impact of chrysin and its derivatives on platelet activation in platelet-rich plasma. […] The platelet aggregation was monitored for 5 minutes. The traces shown are representative of three separate experiments.
as §1

Assay [2] concerns outside-in signalling by integrin αIIbβ3. The assay is described as follows: Clot retraction assay (outside-in signalling by integrin αIIbβ3). Type of assay: cell-based, human. The conditions noted are these: PRP; 50 μM compound; 1 U/mL thrombin; three hours. On the procedure:
R represents ‘resting’ platelets.
Following fibrinogen binding, integrin αIIbβ3 triggers signalling into the platelets in order to induce clot retraction and promote wound healing. This also represents a late downstream signalling event in the platelet activation process. To determine whether chrysin and its derivatives affect outside-in signalling by integrin αIIbβ3, a clot retraction assay was performed. […] At three hours, the clot obtained with the vehicle control [0.1% (v/v) DMSO] retracted to around 50 mg.
PRP (200 µL) was mixed with 5 µL of red blood cells and the final volume was made to 950 µL with modified Tyrodes-HEPES buffer in the presence and absence of various concentrations of chrysin or its synthetic derivatives. Clot formation was initiated by adding 1 U/mL (50 µL) thrombin. A glass capillary was placed in middle of the tube and the clot retraction was observed over a period of 3 hours at room temperature. Clot weight was measured as a marker for clot retraction after 3 hours.

The subject of assay [3] is α-granule secretion in platelets. In words: P-selectin exposure by flow cytometry (marker for α-granule secretion). It counts as cell-based, human. The conditions noted are these: PRP, CRP-XL 0.5 μg/mL. On the procedure: Platelets primarily contain two types of granules (α- and dense granules) and the activation of platelets releases the granule contents to the external environment, where they play important roles in the stimulation of additional platelets and their recruitment to the growing thrombus. […] However, chrysin affected α-granule secretion only at a minimum concentration of 50 μM in platelets.
(§2) Figure 5 Chrysin and its derivatives affect granule secretion in platelets. […] The level of P-selectin (as a marker for α-granule secretion) was quantified using PECy5-labelled anti-human P-selectin antibodies by flow cytometry. […] R represents ‘resting’ platelets. […] Platelets were then activated with 0.5 μg/mL CRP-XL and the ATP release was monitored for 5 minutes by lumi-aggregometry. The traces shown are representative of three separate experiments.
In general terms: In flow cytometry, cells or beads pass a laser one at a time.

The test system of assay [4] is dense granule secretion in washed platelets. The assay is described as follows: ATP release by lumi-aggregometry (marker for dense granule secretion). Type of assay: cell-based, human. To be noted: 100 μM compound, CRP-XL 0.5 μg/mL. Here is the method:
as §2
The preparation of human platelets and aggregation assays were performed using standard protocols as described by us previously, [16]. Briefly, human blood was collected in 3.2% citrate containing vacutainers via venepuncture from healthy, aspirin-free individuals with informed consent in accordance with the methods approved by the University of Reading Research Ethics Committee. All methods were performed in accordance with the relevant institutional and national guidelines and regulations. Blood samples were centrifuged at 102 g for 20 minutes at room temperature to separate the PRP, which was used in aggregation, flow cytometry, static platelet adhesion, calcium mobilisation and clot retraction assays. […] Dense granule secretion in platelets was determined by measuring the ATP release using the luciferin-luciferase reagent by lumi-aggregometry (Chrono-Log, USA). […]

In the next assay the test system is AKT. The assay is described as follows: Immunoblot of AKT phosphorylation at S473 in CRP-XL activated platelets. It counts as cell-based, human. The conditions noted are these: washed platelets, CRP-XL 0.5 μg/mL. From the text:
(§3) The calcium traces (Ai and Bi) shown are representative of three separate experiments. […] The platelets were lysed and used for immunoblot analysis to detect the level of AKT phosphorylation at residue S473, FAK phosphorylation at Y397 and phosphorylation of Src at Y527. The level of 14-3-3ζ protein was detected as a loading control. The cropped images of the blots shown here are representative of three separate experiments. The uncropped full length blots are presented in Supplementary Information (Figure S8).
(§4) Calcium mobilisation is associated with phosphoinositide 3-kinase (PI3K) signalling in platelets. Protein kinase B (AKT) is a downstream effector of PI3K and a key marker for the PI3K/AKT signalling pathway. […]
(§5) The preparation of human platelets and aggregation assays were performed using standard protocols as described by us previously, [16]. Briefly, human blood was collected in 3.2% citrate containing vacutainers via venepuncture from healthy, aspirin-free individuals with informed consent in accordance with the methods approved by the University of Reading Research Ethics Committee. […] Dense granule secretion in platelets was determined by measuring the ATP release using the luciferin-luciferase reagent by lumi-aggregometry (Chrono-Log, USA). […]
In general terms: Immunoblotting shows a protein as a band on a membrane.

Another assay relates to FAK. In words: Immunoblot of FAK phosphorylation at Y397 in CRP-XL activated platelets. Type of assay: cell-based, human. To be noted: washed platelets, CRP-XL 0.5 μg/mL.
Source text: as §3, §4, §5

A further assay has as its system Src. The assay is described as follows: Immunoblot of Src phosphorylation at Y527 in CRP-XL activated platelets. Type of assay: cell-based, human. To be noted: washed platelets, CRP-XL 0.5 μg/mL.
Source text: as §3, §4, §5

Broadly, the inhibition is the change of the read-out against control, counted positive when it falls. `O=c1cc(-c2ccccc2)oc2cc(O)cc(O)c12` [chrysin]: the “reduction in CRP-XL-induced platelet aggregation” value in the assay on human washed platelets (6.25 μM compound) is recorded as “approximately 80%”. The “effect on CRP-XL-induced platelet aggregation in washed platelets” value in the assay on human washed platelets is on record as “inhibited CRP-XL (0.5 μg/mL)-induced aggregation in washed platelets in a concentration-dependent manner”. The “effect on platelet aggregation at lower concentrations” value in assay [1] (PRP, 6.25 μM and 12.5 μM compound, CRP-XL 0.5 μg/mL) is given as “did not exhibit significant effects”. In addition, in assay [1] (PRP, 100 μM compound, CRP-XL 0.5 μg/mL), the “reduction in platelet aggregation” value is listed as “around 40%”. For the same compound, the “effect on clot retraction” value in assay [2] was “did not show significant effects”. Also, the “concentrations that significantly inhibit α-granule secretion” value in assay [3] was at least 50 µM. The inhibition at 100 µM in assay [4] (Homo sapiens, Platelet) was 100%. In addition, the “effect on AKT phosphorylation at S473” value in the assay with AKT was “inhibited their phosphorylation in a concentration-dependent manner”. Also, the “effect on FAK phosphorylation at Y397” value in the assay with FAK is listed as “inhibited their phosphorylation in a concentration-dependent manner”. In addition, the “effect on dephosphorylation of Src at Y527” value with Src is recorded as “significant impact on the dephosphorylation of Src at Y527”.

As for “chlorido [(5-oxo-κO)-7-hydroxy-(2-phenyl)-4H-chromen-4-thionato-κS] (η6-p-cymene)ruthenium(II) [Ru-thio-chrysin]”, the “effect on CRP-XL-induced platelet aggregation in washed platelets” value with human washed platelets is “inhibited CRP-XL-induced platelet aggregation in a concentration-dependent manner”. Besides, the “effect on platelet aggregation in PRP” value in assay [1] (PRP, CRP-XL 0.5 μg/mL) is “significant effect at lower concentrations including 6.25 μM”. For the same compound, the “greater inhibition of platelet function and thrombus formation in vitro than chrysin” value in assay [1] (physiologically relevant conditions such as platelet-rich plasma and whole blood) is on record as 4 fold. Further, the “effect on clot retraction” value in assay [2] was “superior effects in comparison to native chrysin”. The “inhibition of α-granule secretion (P-selectin)” value in assay [3] (100 μM compound) is “approximately 80%”. The “concentrations that significantly inhibit α-granule secretion” value in assay [3] is at least 12.5 µM. For the same compound, the “inhibition of dense granule secretion (ATP release)” value in assay [4] is 100%. For the same compound, the “effect on AKT phosphorylation at S473” value with AKT is recorded as “inhibited their phosphorylation in a concentration-dependent manner”. Also, the “effect on FAK phosphorylation at Y397” value in the assay with FAK is “inhibited their phosphorylation in a concentration-dependent manner”. Besides, the “effect on dephosphorylation of Src at Y527” value with Src is “significant impact on the dephosphorylation of Src at Y527”.
